Data taken from paper PMC8635417 (Communications Biology, 2021).
Values belong to the compound of their own block, whether it stands above or below them.

Tests used:
M2R [1] = target: T1, M2R (Homo sapiens, UniProt P08172); assay: NanoBiT G-protein dissociation assay (Gi activation); type: cell-based; details: HEK293A cells expressing M2R and NanoBiT-Gi1; for Gi-protein activity relative to ACh (in words): Fig. 3a
T1 construct: expressed in transfected cells; host or cells: HEK293A
T1 sequence (P08172 1-466): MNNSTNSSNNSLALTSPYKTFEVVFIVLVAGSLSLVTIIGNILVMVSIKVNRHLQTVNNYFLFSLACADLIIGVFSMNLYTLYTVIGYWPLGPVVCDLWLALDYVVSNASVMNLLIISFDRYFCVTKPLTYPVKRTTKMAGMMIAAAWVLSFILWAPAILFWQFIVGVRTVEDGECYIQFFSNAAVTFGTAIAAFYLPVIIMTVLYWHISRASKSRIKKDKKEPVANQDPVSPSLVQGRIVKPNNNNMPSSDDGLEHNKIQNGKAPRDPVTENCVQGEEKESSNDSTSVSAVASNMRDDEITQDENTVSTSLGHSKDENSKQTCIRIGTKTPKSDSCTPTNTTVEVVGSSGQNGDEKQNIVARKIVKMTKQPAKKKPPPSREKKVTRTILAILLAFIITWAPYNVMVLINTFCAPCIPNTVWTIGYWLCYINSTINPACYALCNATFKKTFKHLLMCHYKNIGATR
Protocol: M2R-induced G-protein dissociation was measured by a NanoBiT-G-protein dissociation assay, in which the interaction between a Gα subunit and a Gβγ subunit was monitored by the NanoBiT system (Promega). Specifically, a NanoBiT-Gi1 protein consisting of Gαi1 subunit fused with a large fragment (LgBiT) at the α-helical domain and an N-terminally small fragment (SmBiT)-fused Gγ2 subunit with a C68S mutation was expressed along with untagged Gβ1 subunit and M2R. HEK293A cells were seeded in a 10-cm culture dish at a concentration of 2 × 10^5 cells mL^−1 (10 mL per well in DMEM (Nissui) supplemented with 10% fetal bovine serum (Gibco), glutamine, penicillin, and streptomycin), 1 day before transfection. Transfection solution was prepared by combining 25 µL (per dish hereafter) of polyethylenimine (PEI) Max solution (1 mg mL^−1; Polysciences), 1 mL of Opti-MEM (Thermo Fisher Scientific), and a plasmid mixture consisting of 1 µg M2R (or an empty plasmid for mock transfection), 500 ng LgBiT-containing Gαi1 subunit, 2.5 µg Gβ1 subunit, and 2.5 µg SmBiT-fused Gγ2 subunit (C68S). After an incubation for 1 day, the transfected cells were harvested with 0.5 mM EDTA-containing Dulbecco’s PBS, centrifuged and suspended in 10 mL of HBSS containing 0.01% bovine serum albumin (BSA; fatty acid–free grade; SERVA) and 5 mM HEPES (pH 7.4) (assay buffer). The cell suspension was dispensed in a white 96-well plate at a volume of 80 µL per well and loaded with 20 µL of 50 µM coelenterazine (Carbosynth) diluted in the assay buffer. After a 2 h incubation at room temperature, the plate was measured for baseline luminescence (Spectramax L, Molecular Devices) and a titrated test ligand (20 µL; […] of final concentrations) was manually added. The plate was immediately read at room temperature for the following 5 min as a kinetics mode, at measurement intervals of 20 s. The luminescence counts over 3–5 min after ligand addition were averaged and normalized to the initial count. The fold-change values were further normalized to that of vehicle-treated samples and used to plot the G-protein dissociation response. Using the Prism 8 software (GraphPad Prism), the G-protein dissociation signals were fitted to a four-parameter sigmoidal concentration-response curve.

M2R [2] = assay: Ligand binding-induced difference ATR-FTIR spectroscopy, amide-I band; design: species or system human; details: lipid-reconstituted M2R-BRIL, 293 K; for population of active-like M2R conformation from amide-I band ratio (in words): 1 mM ligand; for ligand efficacy class suggested by amide-I spectral features: H2O, compared with Scop- and NMS-bound spectra
Protocol: Red and purple lines correspond to ACh- and Atro-bound spectra, respectively. To quantitatively examine the change in the amide-I band specific to ligand efficacy, the ratio between the band strength of (2)1656 (+)/(1)1666 (−) cm^−1 of ACh-bound spectra at high frequency and (2)1656 (+)/(3)1640 (−) cm^−1 of ACh-bound spectra at low frequency is calculated and reported as efficacy rate. b Ligand-dependent spectral changes of amide-I band originating from C=O stretch of α-helix in 1700–1620 cm^−1 region. Red, orange, and purple lines correspond to agonist-, partial agonist-, and antagonist-bound spectra, respectively. […] The error values were calculated from three replicate experiments. Cyan dotted line indicates the value = 1.
The ratio of the amide-I band was assumed to be the ligand efficacy (Fig. 2b, c). Strikingly, all agonists have an amide-I band ratio >1. The amide-I band ratio for both the partial agonists and the antagonists were <1, with the exception of Xano.
A 2 μL aliquot of the lipid-reconstituted M2R suspensions was placed on the surface of a silicon ATR crystal (three internal total reflection, Smith Detection, UK. After it was dried in a gently natural drying, the sample was rehydrated with a solvent containing 200 mM phosphate (pH 7.5) buffer with 140 mM NaCl, 3 mM MgCl2 at a flow rate of 0.6 mL min^−1 through a flow cell, of which the temperature was maintained at 20 °C by circulating water. ATR-FTIR spectra were first recorded at 2 cm^−1 resolution, using an FTIR spectrometer (Bio-rad FTS7000, Agilent, CA, USA) equipped with a liquid nitrogen-cooled MCT detector (an average of 768 interferograms). After the FTIR spectrum had been recorded in the second buffer with 1 mM ligand, the difference FTIR spectrum was calculated by subtracting the data obtained for the first and second buffer. The cycling procedure was repeated two to seven times, and the difference spectra were calculated as the average of the presence minus absence spectra of ligand. The spectral contributions of the unbound ligand, the protein/lipid shrinkage, and water/buffer components were corrected (Supplementary Figure 2–5).

M2R [3] = details: 1 mM ligand, buffer exchange without ligand; cited from earlier work
M2R [4] = assay: Ligand dissociation kinetics from time-course ATR-FTIR (amide-I band); type: binding, human; details: 1 mM ligand washed out by buffer exchange, 0.6 mL min-1, 20 °C; single exponential fit
Protocol: Each ligand (1 mM concentration) is added at 30 min time point and is washed out at 90 min time point by exchanging to the buffer without ligand at a flow rate of 0.6 mL min^−1 through a flow cell, of which the temperature is maintained at 20 °C by circulating water. […] Ligand dissociation phase is highlighted by light blue. b Time trace of the integrated absorbance signal at dissociation phase in the amide-I band for each ligand. […] Dotted lines represent the fitting curve obtained by single exponential function.
After the FTIR spectrum had been recorded in the second buffer with 1 mM ligand, the difference FTIR spectrum was calculated by subtracting the data obtained for the first and second buffer. The cycling procedure was repeated two to seven times, and the difference spectra were calculated as the average of the presence minus absence spectra of ligand. The spectral contributions of the unbound ligand, the protein/lipid shrinkage, and water/buffer components were corrected (Supplementary Figure 2–5).
All functional and statistical data were analyzed using GraphPad Prism v.9.0 (Graphpad Software) and shown as mean ± s.e.m. from at least three independent experiments. Dissociation kinetics curves were evaluated with a single exponential function.

M2R [5] = tested on: M2R; design: method as in PMID 23441648; details: super agonist of M2R; cited from earlier work

SMILES: CC(C)[N+]1(C)[C@@H]2CC[C@H]1C[C@@H](OC(=O)C(CO)c1ccccc1)C2 (some centres unmarked) [Ipra, Ipratropium]
Gi-dissociation activity (Emax normalized to ACh) (M2R [1]; Span normalized to ACh): 6.3 % of ACh
population of active-like M2R conformation from amide-I band ratio (in words) (M2R [2]): higher ratio of active conformation than Atro and Scop

SMILES: CN1[C@@H]2C[C@@H](OC(=O)[C@H](CO)c3ccccc3)C[C@H]1[C@@H]1O[C@@H]12 [Scop, Scopolamine]
Gi-protein activity relative to ACh (in words) (M2R [1]): undetectable

SMILES: CC(=O)OC(C)C[N+](C)(C)C (centres unmarked) [Meta, Metacholine]
Gi-protein activity relative to ACh (in words) (M2R [1]): almost identical Gi-protein activity as ACh

ligand efficacy class suggested by amide-I spectral features (M2R [2]): antagonist
SMILES: CCCC[N+]1(C)C2CC(OC(=O)C(CO)c3ccccc3)CC1C1OC12 (centres unmarked) [NBS, N-butylscopolamine]

SMILES: CN1[C@@H]2CC[C@H]1C[C@@H](OC(=O)C(CO)c1ccccc1)C2 (some centres unmarked) [Atro, atropine]
amide-I band intensity during dissociation phase after buffer exchange (M2R [3]): did not decrease

SMILES: C[N+](C)(C)CC#CCOC1=NOCC1 [Ixo, Iperoxo]
Gi-protein activity relative to ACh (in words) (M2R [1]): higher G-protein activation than ACh
dissociation kinetics (koff) from M2R (in words) (M2R [4]): slowest dissociation kinetics
potency relative to ACh (M2R [5]): 100 fold

SMILES: C[N+](C)(C)CC#CCOC(=O)Nc1cccc(Cl)c1 [McN, McN-A-343]
Gi-protein activity relative to ACh (in words) (M2R [1]): decreased Gi signalling relative to ACh
dissociation kinetics (koff) from M2R (in words) (M2R [4]): fast dissociation kinetics

Gi-protein activity relative to ACh (in words) (M2R [1]): decreased Gi signalling relative to ACh
SMILES: CCCCCCOc1nsnc1C1=CCCN(C)C1 [Xano, Xanomeline]
population of active-like M2R conformation from amide-I band ratio (in words) (M2R [2]): higher population of active-like M2R conformation
dissociation kinetics (koff) from M2R (in words) (M2R [4]): extremely slow

SMILES: C[N+](C)(C)CCOC(N)=O [Carb, Carbamylcholine]
Gi-protein activity relative to ACh (in words) (M2R [1]): almost identical Gi-protein activity as ACh

SMILES: CC[N+]1(C)[C@@H]2CC(OC(=O)[C@H](CO)c3ccccc3)C[C@H]1[C@@H]1O[C@@H]12 (some centres unmarked) [Oxitro, Oxitropium]
ligand efficacy class suggested by amide-I spectral features (M2R [2]): inverse agonist

SMILES: CC(=O)OCC[N+](C)(C)C [ACh, acetylcholine]
amide-I band intensity during dissociation phase after buffer exchange (M2R [3]): decreased gradually
